Experimental data reported in ChEMBL document CHEMBL6153166, “Innovative Protein Degraders for Targeted Cancer and Viral Therapy” (ACS Med Chem Lett, 2025).

target: Sequestosome-1 (Homo sapiens, UniProt Q13501); assay: Inhibition of biotin-labeled Halo/His-tagged p62 (unknown origin) incubated for 30 mins by AlphaLISA competition assay
Sequence (Q13501 whole entry): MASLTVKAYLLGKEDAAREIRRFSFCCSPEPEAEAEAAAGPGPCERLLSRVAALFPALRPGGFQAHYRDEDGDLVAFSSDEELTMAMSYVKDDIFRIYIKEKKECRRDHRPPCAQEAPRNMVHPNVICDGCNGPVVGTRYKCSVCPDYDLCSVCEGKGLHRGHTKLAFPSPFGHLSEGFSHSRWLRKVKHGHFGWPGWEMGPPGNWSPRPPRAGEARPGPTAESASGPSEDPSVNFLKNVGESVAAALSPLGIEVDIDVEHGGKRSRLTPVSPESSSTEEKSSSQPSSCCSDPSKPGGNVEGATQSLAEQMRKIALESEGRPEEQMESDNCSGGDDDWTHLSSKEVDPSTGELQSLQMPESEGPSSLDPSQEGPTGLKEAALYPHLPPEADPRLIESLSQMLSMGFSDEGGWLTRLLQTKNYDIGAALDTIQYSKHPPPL

IC50, ≤ 1500 nM:
CCc1cc2c(cc1N1CCN(C(=O)CCCN3C[C@H](NC(=O)[C@@H](N)CCCn4ccnc4N)C(C)(C)C3)CC1)C(C)(C)C1Nc3cc(C#N)ccc3C1C2=O (stereo partly specified)
CCc1cc2c(cc1N1CCN(C(=O)CCCN3CCC(C)(C)C(NC(=O)[C@@H](N)CCCn4ccnc4N)C3)CC1)C(C)(C)C1Nc3cc(C#N)ccc3C1C2=O (stereo partly specified)
CCc1cc2c(cc1N1CCN(C(=O)CCCN3C[C@H](NC(=O)[C@@H](N)CCCc4cccnc4N)C(C)(C)C3)CC1)C(C)(C)C1Nc3cc(C#N)ccc3C1C2=O (stereo partly specified)
CCc1cc2c(cc1N1CCN(C(=O)CCCN3CC[C@@H](NC(=O)[C@@H](N)CCCn4ccnc4N)C3)CC1)C(C)(C)C1Nc3cc(C#N)ccc3C1C2=O (stereo partly specified)
CCc1cc2c(cc1N1CCN(C(=O)CCCN3C[C@H](NC(=O)[C@@H](N)CCCc4cncnc4N)C(C)(C)C3)CC1)C(C)(C)C1Nc3cc(C#N)ccc3C1C2=O (stereo partly specified)
CCc1cc2c(cc1N1CCN(C(=O)CCCN3C[C@H](NC(=O)[C@@H](N)CCCn4ccnc4N)C4(CC4)C3)CC1)C(C)(C)C1Nc3cc(C#N)ccc3C1C2=O (stereo partly specified)
